Measured values reported in PubChem BioAssay (NCI).
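48-hour exposure; five concentrations; linearly interpolated endpoints. Definition used: TGI = concentration required for complete inhibition of growth.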

Tests used:
Assay in all cases: inhibition of tumour cell growth, NCI panel, 48 h
[1] = test system: A549 NSCLC
[2] = test system: HOP-92 NSCLC
[3] = test system: UACC-62 melanoma
[4] = test system: SK-MEL-5 melanoma
[5] = test system: M19-MEL melanoma
[6] = test system: NCI-H460 lung
[7] = test system: SN12C renal
[8] = test system: DMS 114 small cell lung
[9] = test system: SR leukemia
[10] = test system: COLO 205 colon
[11] = test system: DMS 273 small cell lung
[12] = test system: SK-MEL-2 melanoma
[13] = test system: HT29 colon
[14] = test system: KM12 colon
[15] = test system: M14 melanoma
[16] = test system: K-562 leukemia
[17] = test system: SF-295 CNS
[18] = test system: HOP-62 NSCLC
[19] = test system: RPMI-8226 leukemia
[20] = test system: IGROV1 ovarian
[21] = test system: LOX IMVI melanoma
[22] = test system: OVCAR-3 ovarian
[23] = test system: SF-268 CNS
[24] = test system: OVCAR-8 ovarian
[25] = test system: EKVX NSCLC
[26] = test system: LXFL 529 NSCLC
[27] = test system: SW-620 colon
[28] = test system: UO-31 renal
[29] = test system: MOLT-4 leukemia
[30] = test system: NCI-H226 lung
[31] = test system: CAKI-1 renal
[32] = test system: OVCAR-5 ovarian
[33] = test system: XF 498 CNS
[34] = test system: ACHN renal
[35] = test system: U251 CNS
[36] = test system: SNB-75 CNS
[37] = test system: HL-60(TB) leukemia
[38] = test system: DLD-1 colon
[39] = test system: NCI-H522 lung
[40] = test system: NCI-H23 lung
[41] = test system: SF-539 CNS
[42] = test system: CCRF-CEM leukemia
[43] = test system: HCT-116 colon
[44] = test system: HCT-15 colon
[45] = test system: OVCAR-4 ovarian
[46] = test system: SK-OV-3 ovarian
[47] = test system: SNB-78 CNS
[48] = test system: UACC-257 melanoma
[49] = test system: TK-10 renal
[50] = test system: RXF 393 renal
[51] = test system: SK-MEL-28 melanoma
[52] = test system: 786-0 renal
[53] = test system: SNB-19 CNS
[54] = test system: HCC-2998 colon
[55] = test system: KM20L2 colon

**Q.** For `CC1(C)CCc2cc3c(cc2O1)OC(C)(C)CC3=O`, which TGI [1] is on record?
**A.** The TGI was greater than 100 µM.

**Q.** And the TGI [2]?
**A.** Its TGI is 70.7 µM.

**Q.** What about the TGI [3] of the same compound?
**A.** Its TGI is greater than 100 µM.

**Q.** What about the TGI [4] of the same compound?
**A.** Its TGI is 52.2 µM.

**Q.** And the TGI [5]?
**A.** The TGI was greater than 100 µM.

**Q.** And the TGI [6]?
**A.** The TGI was greater than 100 µM.

**Q.** And the TGI [7]?
**A.** The TGI was greater than 100 µM.

**Q.** What about the TGI [8] of the same compound?
**A.** Its TGI is greater than 100 µM.

**Q.** And the TGI [9]?
**A.** Its TGI is greater than 100 µM.

**Q.** And the TGI [10]?
**A.** The TGI was greater than 100 µM.

**Q.** And the TGI [11]?
**A.** The TGI was greater than 100 µM.

**Q.** And the TGI [12]?
**A.** Its TGI is greater than 100 µM.

**Q.** What about the TGI [13] of the same compound?
**A.** Its TGI is greater than 100 µM.

**Q.** What about the TGI [14] of the same compound?
**A.** Its TGI is greater than 100 µM.

**Q.** What about the TGI [15] of the same compound?
**A.** The TGI was greater than 100 µM.

**Q.** What about the TGI [16] of the same compound?
**A.** Its TGI is greater than 100 µM.

**Q.** What about the TGI [17] of the same compound?
**A.** The TGI was greater than 100 µM.

**Q.** What about the TGI [18] of the same compound?
**A.** Its TGI is greater than 100 µM.

**Q.** And the TGI [19]?
**A.** The TGI was greater than 100 µM.

**Q.** And the TGI [20]?
**A.** Its TGI is greater than 100 µM.

**Q.** And the TGI [21]?
**A.** Its TGI is greater than 100 µM.

**Q.** What about the TGI [22] of the same compound?
**A.** The TGI was greater than 100 µM.

**Q.** What about the TGI [23] of the same compound?
**A.** Its TGI is greater than 100 µM.

**Q.** And the TGI [24]?
**A.** The TGI was greater than 100 µM.

**Q.** And the TGI [25]?
**A.** Its TGI is greater than 100 µM.

**Q.** What about the TGI [26] of the same compound?
**A.** The TGI was greater than 100 µM.

**Q.** And the TGI [27]?
**A.** The TGI was greater than 100 µM.

**Q.** And the TGI [28]?
**A.** Its TGI is greater than 100 µM.

**Q.** What about the TGI [29] of the same compound?
**A.** The TGI was greater than 100 µM.

**Q.** What about the TGI [30] of the same compound?
**A.** The TGI was greater than 100 µM.

**Q.** And the TGI [31]?
**A.** Its TGI is greater than 100 µM.

**Q.** What about the TGI [32] of the same compound?
**A.** The TGI was greater than 100 µM.

**Q.** And the TGI [33]?
**A.** The TGI was greater than 100 µM.

**Q.** What about the TGI [34] of the same compound?
**A.** The TGI was greater than 100 µM.

**Q.** And the TGI [35]?
**A.** Its TGI is greater than 100 µM.

**Q.** What about the TGI [36] of the same compound?
**A.** Its TGI is greater than 100 µM.

**Q.** And the TGI [37]?
**A.** Its TGI is greater than 100 µM.

**Q.** And the TGI [38]?
**A.** Its TGI is greater than 100 µM.

**Q.** What about the TGI [39] of the same compound?
**A.** The TGI was greater than 100 µM.

**Q.** What about the TGI [40] of the same compound?
**A.** The TGI was greater than 100 µM.

**Q.** What about the TGI [41] of the same compound?
**A.** Its TGI is greater than 100 µM.

**Q.** What about the TGI [42] of the same compound?
**A.** Its TGI is greater than 100 µM.

**Q.** What about the TGI [43] of the same compound?
**A.** Its TGI is greater than 100 µM.

**Q.** What about the TGI [44] of the same compound?
**A.** Its TGI is greater than 100 µM.

**Q.** What about the TGI [45] of the same compound?
**A.** The TGI was greater than 100 µM.

**Q.** And the TGI [46]?
**A.** The TGI was greater than 100 µM.

**Q.** How did the TGI [47] turn out when `CN(C)CCNC(=O)c1ccccc1Nc1c(Cl)cccc1Cl` was run?
**A.** Its TGI is 33.8 µM.

**Q.** What about the TGI [1] of the same compound?
**A.** Its TGI is 25.3 µM.

**Q.** And the TGI [3]?
**A.** The TGI was 31.4 µM.

**Q.** What about the TGI [4] of the same compound?
**A.** The TGI was 9.96 µM.

**Q.** And the TGI [48]?
**A.** The TGI was 18.5 µM.

**Q.** What about the TGI [5] of the same compound?
**A.** The TGI was 24.5 µM.

**Q.** What about the TGI [7] of the same compound?
**A.** Its TGI is 28.7 µM.

**Q.** And the TGI [9]?
**A.** Its TGI is 30.9 µM.

**Q.** And the TGI [10]?
**A.** Its TGI is 25.8 µM.

**Q.** What about the TGI [11] of the same compound?
**A.** Its TGI is 30.5 µM.

**Q.** What about the TGI [13] of the same compound?
**A.** The TGI was 20 µM.

**Q.** And the TGI [15]?
**A.** The TGI was 31 µM.

**Q.** What about the TGI [16] of the same compound?
**A.** The TGI was 36.2 µM.

**Q.** And the TGI [18]?
**A.** Its TGI is 27.2 µM.

**Q.** And the TGI [49]?
**A.** The TGI was 20.7 µM.

**Q.** And the TGI [19]?
**A.** The TGI was 29.1 µM.

**Q.** And the TGI [20]?
**A.** Its TGI is 36.3 µM.

**Q.** And the TGI [50]?
**A.** Its TGI is 10.8 µM.

**Q.** And the TGI [51]?
**A.** The TGI was 28.2 µM.

**Q.** And the TGI [52]?
**A.** The TGI was 18.9 µM.

**Q.** And the TGI [21]?
**A.** The TGI was 25.8 µM.

**Q.** And the TGI [23]?
**A.** Its TGI is 31.5 µM.

**Q.** What about the TGI [24] of the same compound?
**A.** Its TGI is 27.8 µM.

**Q.** What about the TGI [25] of the same compound?
**A.** The TGI was 21.6 µM.

**Q.** And the TGI [26]?
**A.** The TGI was 32.4 µM.

**Q.** And the TGI [53]?
**A.** Its TGI is 29.9 µM.

**Q.** And the TGI [27]?
**A.** The TGI was 30.2 µM.

**Q.** And the TGI [28]?
**A.** The TGI was 17.2 µM.

**Q.** And the TGI [29]?
**A.** The TGI was 29.2 µM.

**Q.** What about the TGI [30] of the same compound?
**A.** The TGI was 29.4 µM.

**Q.** What about the TGI [32] of the same compound?
**A.** Its TGI is 22.2 µM.

**Q.** What about the TGI [54] of the same compound?
**A.** Its TGI is 23.7 µM.

**Q.** What about the TGI [33] of the same compound?
**A.** Its TGI is 22 µM.

**Q.** What about the TGI [55] of the same compound?
**A.** The TGI was 23.4 µM.

**Q.** What about the TGI [34] of the same compound?
**A.** The TGI was 21 µM.

**Q.** What about the TGI [35] of the same compound?
**A.** The TGI was 23.9 µM.

**Q.** And the TGI [36]?
**A.** Its TGI is 9.52 µM.

**Q.** What about the TGI [37] of the same compound?
**A.** Its TGI is 27 µM.

**Q.** And the TGI [38]?
**A.** The TGI was 37.1 µM.

**Q.** What about the TGI [40] of the same compound?
**A.** Its TGI is 30.9 µM.

**Q.** And the TGI [41]?
**A.** Its TGI is 26.7 µM.

**Q.** What about the TGI [42] of the same compound?
**A.** The TGI was 30.4 µM.

**Q.** And the TGI [43]?
**A.** Its TGI is 20.6 µM.

**Q.** What about the TGI [44] of the same compound?
**A.** The TGI was 27.9 µM.

**Q.** What about the TGI [45] of the same compound?
**A.** The TGI was 29.7 µM.

**Q.** And the TGI [46]?
**A.** Its TGI is 26.8 µM.
